Assay results from patent US20250205344A1, “2,4-DIOXOTETRAHYDROPYRIMIDINYL DERATIVES AS DEGRONS IN PROTACS” (GLAXOSMITHKLINE INTELLECTUAL PROPERTY DEVELOPMENT LIMITED, priority 2022, published 2025).
Where a name gives a salt, the structure may show the parent alone.

What follows are compounds tested against T1, Androgen Receptor (Homo sapiens, UniProt P10275, T878A) (assay: Androgen Receptor Degradation Assay (Nano-Glo HiBiT)). Conditions: HiBiT-tagged AR in human LnCaP cells, 18 h.
T1 construct: the AR gene was modified, using CRISPR/Cas9 editing, so the expressed AR protein included an 11 amino acid HiBiT tag; endogenous in cells; host or cells: clonal LnCaP-derived line, AR gene edited by CRISPR/Cas9
T1 sequence (P10275 whole entry T878A): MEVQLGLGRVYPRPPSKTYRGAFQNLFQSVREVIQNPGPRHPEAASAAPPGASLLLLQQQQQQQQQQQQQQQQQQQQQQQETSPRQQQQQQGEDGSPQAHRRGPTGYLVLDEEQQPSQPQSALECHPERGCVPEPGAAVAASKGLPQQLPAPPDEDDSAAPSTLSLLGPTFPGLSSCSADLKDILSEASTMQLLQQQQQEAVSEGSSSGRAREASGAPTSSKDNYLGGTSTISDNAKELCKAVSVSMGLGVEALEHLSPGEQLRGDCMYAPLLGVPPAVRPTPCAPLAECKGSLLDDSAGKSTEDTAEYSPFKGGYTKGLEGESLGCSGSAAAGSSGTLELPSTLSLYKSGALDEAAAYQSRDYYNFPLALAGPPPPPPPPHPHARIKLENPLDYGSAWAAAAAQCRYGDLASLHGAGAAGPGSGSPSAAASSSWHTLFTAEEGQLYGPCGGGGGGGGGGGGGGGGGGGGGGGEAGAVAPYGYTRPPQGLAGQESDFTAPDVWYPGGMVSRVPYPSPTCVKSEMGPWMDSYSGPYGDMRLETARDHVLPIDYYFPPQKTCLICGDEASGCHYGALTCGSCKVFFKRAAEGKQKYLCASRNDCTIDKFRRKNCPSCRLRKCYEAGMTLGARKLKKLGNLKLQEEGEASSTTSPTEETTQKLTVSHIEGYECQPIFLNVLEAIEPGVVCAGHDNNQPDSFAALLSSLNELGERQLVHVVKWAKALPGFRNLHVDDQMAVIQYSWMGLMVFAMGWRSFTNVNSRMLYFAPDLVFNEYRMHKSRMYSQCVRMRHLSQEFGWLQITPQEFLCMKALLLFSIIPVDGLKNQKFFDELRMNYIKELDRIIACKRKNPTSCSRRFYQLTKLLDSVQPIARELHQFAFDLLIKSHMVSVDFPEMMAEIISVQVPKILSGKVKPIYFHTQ
T1 sequence (Q96SW2 whole entry partner): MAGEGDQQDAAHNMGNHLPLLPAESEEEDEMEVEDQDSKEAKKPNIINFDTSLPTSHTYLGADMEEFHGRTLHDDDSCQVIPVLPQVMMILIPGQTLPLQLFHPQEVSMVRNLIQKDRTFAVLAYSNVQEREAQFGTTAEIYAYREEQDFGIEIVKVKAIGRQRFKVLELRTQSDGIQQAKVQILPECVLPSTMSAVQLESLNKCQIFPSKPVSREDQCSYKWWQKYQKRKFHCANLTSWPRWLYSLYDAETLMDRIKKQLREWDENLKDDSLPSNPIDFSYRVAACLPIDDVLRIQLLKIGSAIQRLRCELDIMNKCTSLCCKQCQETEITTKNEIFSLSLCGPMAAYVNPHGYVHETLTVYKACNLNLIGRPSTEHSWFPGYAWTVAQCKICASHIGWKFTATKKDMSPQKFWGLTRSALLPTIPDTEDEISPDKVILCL
T1 sequence (Q16531 whole entry partner): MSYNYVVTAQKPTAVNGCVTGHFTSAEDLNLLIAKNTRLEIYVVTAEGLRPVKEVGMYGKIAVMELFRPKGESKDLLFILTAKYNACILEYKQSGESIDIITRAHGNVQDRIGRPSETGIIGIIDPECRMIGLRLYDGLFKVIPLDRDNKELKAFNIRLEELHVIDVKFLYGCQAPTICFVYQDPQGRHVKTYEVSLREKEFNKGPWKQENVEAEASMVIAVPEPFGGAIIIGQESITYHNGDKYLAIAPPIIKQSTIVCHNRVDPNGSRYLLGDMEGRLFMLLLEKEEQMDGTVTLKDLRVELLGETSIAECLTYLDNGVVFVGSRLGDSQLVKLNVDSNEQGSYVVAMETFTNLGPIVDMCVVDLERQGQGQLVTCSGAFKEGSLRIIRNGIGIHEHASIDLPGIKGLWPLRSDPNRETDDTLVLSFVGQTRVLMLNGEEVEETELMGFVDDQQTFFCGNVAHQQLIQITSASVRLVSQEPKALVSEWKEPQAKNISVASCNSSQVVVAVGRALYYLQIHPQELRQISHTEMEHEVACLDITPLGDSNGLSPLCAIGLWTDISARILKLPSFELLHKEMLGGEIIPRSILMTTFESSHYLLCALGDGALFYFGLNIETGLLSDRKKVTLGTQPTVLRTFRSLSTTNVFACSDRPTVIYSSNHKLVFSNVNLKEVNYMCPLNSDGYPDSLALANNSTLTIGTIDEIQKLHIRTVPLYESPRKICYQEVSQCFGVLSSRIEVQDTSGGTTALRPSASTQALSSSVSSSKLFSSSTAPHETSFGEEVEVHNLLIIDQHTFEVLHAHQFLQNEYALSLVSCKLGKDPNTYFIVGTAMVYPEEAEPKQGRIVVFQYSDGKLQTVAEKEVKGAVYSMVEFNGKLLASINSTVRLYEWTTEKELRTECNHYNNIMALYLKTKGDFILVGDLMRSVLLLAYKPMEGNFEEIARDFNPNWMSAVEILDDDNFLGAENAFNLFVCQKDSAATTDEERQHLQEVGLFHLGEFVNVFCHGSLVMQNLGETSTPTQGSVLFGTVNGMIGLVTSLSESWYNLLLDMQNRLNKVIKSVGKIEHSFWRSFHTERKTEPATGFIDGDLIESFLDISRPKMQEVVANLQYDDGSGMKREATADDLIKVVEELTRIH
Type: cell-based
Outline: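 LnCaP cells with CRISPR-knocked-in N-terminal HiBiT-tagged AR (10,000/well) treated 18 h at 37 °C with PROTACs over 11 threefold concentrations; lytic HiBiT luminescence normalised to DMSO (0%) and cell-free (100%) controls. Relative DC50 = 4-parameter fit inflection; absolute DC50 = 50% degradation interpolation; Dmax = maximum observed degradation.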
For `CC1(C)[C@H](NC(=O)c2ncc(N3CCC(CN4CCC(n5ncc6c(N7CCC(=O)NC7=O)cccc65)CC4)CC3)cn2)C(C)(C)[C@H]1Oc1cnc(C#N)c(Cl)c1` [EAR268, N-((1r,3r)-3-((5-Chloro-6-cyanopyridin-3-yl)oxy)-2,2,4,4-tetramethylcyclobutyl)-5-(4-((4-(4-(2,4-dioxotetrahydropyrimidin-1(2H)-yl)-1H-indazol-1-yl)piperidin-1-yl)methyl)piperidin-1-yl)pyrimidine-2-carboxamide], the “mean relative pDC50” value was 5.54.
With `C[C@@H]1CN(C(=O)Nc2ccc(N3CCC(CCN4CCC(n5ncc6c(N7CCC(=O)NC7=O)cncc65)CC4)CC3)nc2)[C@@H](C)CN1c1ccc(C#N)c(Cl)c1.O=CO` [EAR133, (2S,5R)-4-(3-Chloro-4-cyanophenyl)-N-(6-(4-(2-(4-(4-(2,4-dioxotetrahydropyrimidin-1(2H)-yl)-1H-pyrazolo[3,4-c]pyridin-1-yl)piperidin-1-yl)ethyl)piperidin-1-yl)pyridin-3-yl)-2,5-dimethylpiperazine-1-carboxamide, formic acid salt] the “mean relative pDC50” value was 5.94.

Same assay, conditions: LNCaP, 18 h, HiBiT-tagged AR in human LnCaP cells, read-out: mean asymptote max
`CC1(C)[C@H](NC(=O)c2ncc(N3CCC(CN4CCC(n5ncc6c(N7CCC(=O)NC7=O)cccc65)CC4)CC3)cn2)C(C)(C)[C@H]1Oc1cnc(C#N)c(Cl)c1` [EAR268, N-((1r,3r)-3-((5-Chloro-6-cyanopyridin-3-yl)oxy)-2,2,4,4-tetramethylcyclobutyl)-5-(4-((4-(4-(2,4-dioxotetrahydropyrimidin-1(2H)-yl)-1H-indazol-1-yl)piperidin-1-yl)methyl)piperidin-1-yl)pyrimidine-2-carboxamide] was tested, and the Dmax was ≥ 50%.
With `N#Cc1ccc(O[C@H]2CC[C@H](NC(=O)c3cnc(N4CCC(CN5CCC(n6ccc7c(N8CCC(=O)NC8=O)ncnc76)CC5)CC4)cn3)CC2)cc1Cl` [EAR196, N-((1r,4r)-4-(3-Chloro-4-cyanophenoxy)cyclohexyl)-5-(4-((4-(4-(2,4-dioxotetrahydropyrimidin-1(2H)-yl)-7H-pyrrolo[2,3-d]pyrimidin-7-yl)piperidin-1-yl)methyl)piperidin-1-yl)pyrazine-2-carboxamide hydrochloride] the Dmax was ≥ 50%.
For `N#Cc1ccc(O[C@H]2CC[C@H](NC(=O)c3ccc(N4CCN(CC5CCC(n6ccc7c(N8CCC(=O)NC8=O)cccc76)CC5)CC4)nn3)CC2)cc1Cl` (stereo partly drawn) [EAR194, N-((1r,4r)-4-(3-Chloro-4-cyanophenoxy)cyclohexyl)-6-(4-((4-(4-(2,4-dioxotetrahydropyrimidin-1(2H)-yl)-1H-indol-1-yl)cyclohexyl)methyl)piperazin-1-yl)pyridazine-3-carboxamide, trifluoroacetic acid salt], the Dmax was ≥ 50%.
In the case of `CC1(CN2CCC(n3ccc4c(N5CCC(=O)NC5=O)cccc43)CC2)CCN(c2ccc(C(=O)N[C@H]3CC[C@H](Oc4ccc(C#N)c(Cl)c4)CC3)nn2)CC1` [EAR213, N-((1r,4r)-4-(3-Chloro-4-cyanophenoxy)cyclohexyl)-6-(4-((4-(4-(2,4-dioxotetrahydropyrimidin-1(2H)-yl)-1H-indol-1-yl)piperidin-1-yl)methyl)-4-methylpiperidin-1-yl)pyridazine-3-carboxamide], the Dmax is reported as ≥ 50%.
In the case of `N#Cc1ccc(O[C@H]2CC[C@H](NC(=O)c3ccc(N4CCC(N5CCC(n6ccc7c(N8CCC(=O)NC8=O)cccc76)CC5)CC4)nn3)CC2)cc1Cl` [AR7, N-((1r,4r)-4-(3-Chloro-4-cyanophenoxy)cyclohexyl)-6-(4-(4-(2,4-dioxotetrahydropyrimidin-1(2H)-yl)-1H-indol-1-yl)-[1,4′-bipiperidin]-1′-yl)pyridazine-3-carboxamide], the Dmax is reported as ≥ 50%.
In the case of `N#Cc1ccc(O[C@H]2CC[C@H](NC(=O)c3ccc(N4CC5(CCC(CN6CCC(n7ncc8c(N9CCC(=O)NC9=O)cccc87)CC6)CC5)C4)nn3)CC2)cc1Cl` [EAR225, N-((1r,4r)-4-(3-chloro-4-cyanophenoxy)cyclohexyl)-6-(7-((4-(4-(2,4-dioxotetrahydropyrimidin-1(2H)-yl)-1H-indazol-1-yl)piperidin-1-yl)methyl)-2-azaspiro[3.5]nonan-2-yl)pyridazine-3-carboxamide], the Dmax is reported as ≥ 50%.
`N#Cc1ccc(O[C@H]2CC[C@H](NC(=O)c3ccc(N4CCC(CN5CCC(n6ccc7c(N8CCC(=O)NC8=O)cncc76)CC5)CC4)nc3)CC2)cc1C(F)(F)F` [AR19, N-((1r,4r)-4-(4-Cyano-3-(trifluoromethyl)phenoxy)cyclohexyl)-6-(4-((4-(4-(2,4-dioxotetrahydropyrimidin-1(2H)-yl)-1H-pyrrolo[2,3-c]pyridin-1-yl)piperidin-1-yl)methyl)piperidin-1-yl)nicotinamide] was tested, and the Dmax was ≥ 50%.
In the case of `N#Cc1ccc(O[C@H]2CC[C@H](NC(=O)c3ccc(N4CC[C@H](CN5CCC(n6ncc7c(N8CCC(=O)NC8=O)cccc76)CC5)C4)nn3)CC2)cc1Cl` [EAR238, N-((1r,4R)-4-(3-chloro-4-cyanophenoxy)cyclohexyl)-6-((R)-3-((4-(4-(2,4-dioxotetrahydropyrimidin-1(2H)-yl)-1H-indazol-1-yl)piperidin-1-yl)methyl)pyrrolidin-1-yl)pyridazine-3-carboxamide], the Dmax is reported as ≥ 50%.
For `N#Cc1ccc(O[C@H]2CC[C@H](NC(=O)c3ccc(N4C5CCC4CC(CN4CCC(n6ncc7c(N8CCC(=O)NC8=O)cccc76)CC4)C5)nn3)CC2)cc1Cl` (stereo partly drawn) [EAR230, N-((1r,4r)-4-(3-chloro-4-cyanophenoxy)cyclohexyl)-6-(3-((4-(4-(2,4-dioxotetrahydropyrimidin-1(2H)-yl)-1H-indazol-1-yl)piperidin-1-yl)methyl)-8-azabicyclo[3.2.1]octan-8-yl)pyridazine-3-carboxamide], the Dmax was ≥ 50%.
For `CC1(C)C(=O)N(c2ccc(C#N)c(C(F)(F)F)c2)C(=S)N1c1ccc(OCCCN2CCC(n3ccc4c(N5CCC(=O)NC5=O)cncc43)CC2)cc1` [EAR104, 4-(3-(4-(3-(4-(4-(2,4-Dioxotetrahydropyrimidin-1(2H)-yl)-1H-pyrrolo[2,3-c]pyridin-1-yl)piperidin-1-yl)propoxy)phenyl)-4,4-dimethyl-5-oxo-2-thioxoimidazolidin-1-yl)-2-(trifluoromethyl)benzonitrile], the Dmax was ≥ 50%.
With `N#Cc1ccc(O[C@H]2CC[C@H](NC(=O)c3ccc(N4CCC(CN5CC[C@@H](n6ccc7c(N8CCC(=O)NC8=O)cccc76)[C@H](F)C5)CC4)nn3)CC2)cc1Cl` [EAR144, N-((1r,4r)-4-(3-Chloro-4-cyanophenoxy)cyclohexyl)-6-(4-(((3R,4R)-4-(4-(2,4-dioxotetrahydropyrimidin-1(2H)-yl)-1H-indol-1-yl)-3-fluoropiperidin-1-yl)methyl)piperidin-1-yl)pyridazine-3-carboxamide, hydrochloride] the Dmax was ≥ 50%.
`N#Cc1ccc(O[C@H]2CC[C@H](NC(=O)c3ccc(N4CC5(CC(CN6CCC(n7ncc8c(N9CCC(=O)NC9=O)cccc87)CC6)C5)C4)nn3)CC2)cc1Cl` [EAR224, N-((1r,4r)-4-(3-chloro-4-cyanophenoxy)cyclohexyl)-6-(6-((4-(4-(2,4-dioxotetrahydropyrimidin-1(2H)-yl)-1H-indazol-1-yl)piperidin-1-yl)methyl)-2-azaspiro[3.3]heptan-2-yl)pyridazine-3-carboxamide] was tested, and the Dmax was ≥ 50%.
For `N#Cc1ccc(O[C@H]2CC[C@H](NC(=O)c3ccc(N4CCO[C@@H](CN5CCC(n6ccc7c(N8CCC(=O)NC8=O)cccc76)CC5)C4)nn3)CC2)cc1Cl` [EAR125, N-((1r,4S)-4-(3-Chloro-4-cyanophenoxy)cyclohexyl)-6-((S)-2-((4-(4-(2,4-dioxotetrahydropyrimidin-1(2H)-yl)-1H-indol-1-yl)piperidin-1-yl)methyl)morpholino)pyridazine-3-carboxamide], the Dmax was ≥ 50%.
For `CC1(C)C(=O)N(c2ccc(C#N)c(C(F)(F)F)c2)C(=S)N1c1ccc(N2CCC(N3CCC(n4ccc5c(N6CCC(=O)NC6=O)cncc54)CC3)CC2)cc1` [EAR96, 4-(3-(4-(4-(4-(2,4-Dioxotetrahydropyrimidin-1(2H)-yl)-1H-pyrrolo[2,3-c]pyridin-1-yl)-[1,4′-bipiperidin]-1′-yl)phenyl)-4,4-dimethyl-5-oxo-2-thioxoimidazolidin-1-yl)-2-(trifluoromethyl)benzonitrile formate], the Dmax was ≥ 50%.
For `CC(C)n1ccc2c(N3CCC(=O)NC3=O)cc(C(=O)N(C)C3CCN(CCCCOc4ccc(C(=O)N[C@H]5CC[C@H](Oc6ccc(C#N)c(Cl)c6)CC5)nc4)CC3)cc21` [EAR64, N-(1-(4-((6-(((1r,4r)-4-(3-Chloro-4-cyanophenoxy)cyclohexyl)carbamoyl)pyridin-3-yl)oxy)butyl)piperidin-4-yl)-4-(2,4-dioxotetrahydropyrimidin-1(2H)-yl)-1-isopropyl-N-methyl-1H-indole-6-carboxamide], the Dmax was ≥ 50%.
In the case of `N#Cc1ccc(O[C@H]2CC[C@H](NC(=O)c3ccc(N4CCC(CN5CCC(n6ccc7c(N8CCC(=O)NC8=O)c(F)ccc76)CC5)CC4)nn3)CC2)cc1Cl` [EAR170, N-((1r,4r)-4-(3-Chloro-4-cyanophenoxy)cyclohexyl)-6-(4-((4-(4-(2,4-dioxotetrahydropyrimidin-1(2H)-yl)-5-fluoro-1H-indol-1-yl)piperidin-1-yl)methyl)piperidin-1-yl)pyridazine-3-carboxamide, hydrochloride], the Dmax is reported as ≥ 50%.
In the case of `C[C@@H]1CN(C(=O)Nc2ccc(N3CCC(CCN4CCC(n5ncc6c(N7CCC(=O)NC7=O)cncc65)CC4)CC3)nc2)[C@@H](C)CN1c1ccc(C#N)c(Cl)c1.O=CO` [EAR133, (2S,5R)-4-(3-Chloro-4-cyanophenyl)-N-(6-(4-(2-(4-(4-(2,4-dioxotetrahydropyrimidin-1(2H)-yl)-1H-pyrazolo[3,4-c]pyridin-1-yl)piperidin-1-yl)ethyl)piperidin-1-yl)pyridin-3-yl)-2,5-dimethylpiperazine-1-carboxamide, formic acid salt], the Dmax is reported as ≥ 50%.
In the case of `N#Cc1ccc(O[C@H]2CC[C@H](NC(=O)c3ccc(N4CCC(CN5CCC(n6ccc7c(N8CCC(=O)NC8=O)cncc76)CC5)CC4)nn3)CC2)cc1Cl` [EAR48, N-((1r,4r)-4-(3-Chloro-4-cyanophenoxy)cyclohexyl)-6-(4-((4-(4-(2,4-dioxotetrahydropyrimidin-1(2H)-yl)-1H-pyrrolo[2,3-c]pyridin-1-yl)piperidin-1-yl)methyl)piperidin-1-yl)pyridazine-3-carboxamide hydrochloride], the Dmax is reported as ≥ 50%.
`CC(C)n1ccc2c(N3CCC(=O)NC3=O)cc(C(=O)N3CCN(CCCOc4ccc(C(=O)N[C@H]5CC[C@H](Oc6ccc(C#N)c(Cl)c6)CC5)nc4)CC3)cc21` [EAR59, N-((1r,4r)-4-(3-Chloro-4-cyanophenoxy)cyclohexyl)-5-(3-(4-(4-(2,4-dioxotetrahydropyrimidin-1(2H)-yl)-1-isopropyl-1H-indole-6-carbonyl)piperazin-1-yl)propoxy)picolinamide] was tested, and the Dmax was ≥ 50%.
